Columns and labels:
MX-1 tumour xenografts = assay: MX-1 human tumour xenograft growth in female athymic mice; type: in vivo; conditions: female nude mice; for Day 14 Median tumour volume / Day 14 geometric mean tumour volume: Day 14 after implantation (randomisation, start of treatment), ZD6474 25 mg/kg/day p.o., pemetrexed 75 mg/kg i.p.; for Day 28 Median tumour volume / Day 28 geometric mean tumour volume: ZD6474 25 mg/kg/day p.o. once daily, pemetrexed 75 mg/kg i.p. once daily days 14-18 and 21-25
Method: Tumour implantation procedures were performed on mice of at least 5 weeks of age. Human tumour xenografts were grown in female athymic (nu/nu genotype, Swiss) mice. MX-1 tumour fragments were implanted into athymic mice and allowed to grow to 0.7-1 cm^3 to provide donor tumour tissue. The donor tumours were surgically excised and smaller tumour fragments (20-30 mg) were implanted subcutaneously (s.c.) in the right flanks of the experimental athymic mice. When the mean tumour volume reached 0.1-0.3 cm^3, randomisation was carried out. […] An additional group of animals received a combination of pemetrexed and ZD6474, using the same doses and schedules as used for single agent treatment.
Tumour volumes were assessed at least twice weekly by bilateral Vernier caliper measurement. Growth inhibition from the start of treatment was assessed by comparison of the differences in tumour volume between control and treated groups.
Experiments were conducted on female athymic mice (Swiss nu/nu genotype, >6 weeks of age). MX-1 human tumour xenografts were established in mice from tumour cell implants. The donor tumours were surgically excised when they reached a volume of 0.7-1 cm^3, divided into fragments and frozen until further use. At the start of the experiment, fragments (approximately 30 mg) were thawed and implanted (subcutaneously in the dorsal flank) in the experimental animals. Tumour volumes were assessed at least twice weekly by bilateral Vernier calliper measurements. Mice were randomised into treatment groups when the tumour volume reached 0.1-0.2 cm^3. […] An additional group of animals received a combination of ZD6474 and pemetrexed, using the same doses and schedules as used for single agent treatment.
Tumour growth inhibition (TGI) from the start of treatment was assessed by comparison of the differences in tumour volume between control and treated groups.

tumour growth = conditions: range of models, once-daily oral administration; cited from earlier work
VEGF RTK = conditions: cited from earlier work

Structure (SMILES): Nc1nc2[nH]cc(CCc3ccc(C(=O)N[C@@H](CCC(=O)[O-])C(=O)[O-])cc3)c2c(=O)[nH]1.[Na+].[Na+] [pemetrexed, L-Glutamic acid, N-[4-[2-(2-amino-4,7-dihydro-4-oxo-1H-pyffolo[2,3-d]pyrimidin-5-yl)ethyl]benzoyl]-, disodium salt, hetpahydrate]
- Day 14 Median tumour volume (MX-1 tumour xenografts): 0.147 cm^3
- Day 14 geometric mean tumour volume (MX-1 tumour xenografts): 0.146 cm^3
- Day 28 Median tumour volume (MX-1 tumour xenografts): 0.794 cm^3
- Day 28 geometric mean tumour volume (MX-1 tumour xenografts): 0.751 cm^3

Structure (SMILES): COc1cc2c(Nc3ccc(Br)cc3F)ncnc2cc1OCC1CCN(C)CC1 [ZD6474, 4-(4-bromo-2-fluoroanilino)-6-methoxy-7-(1-methylpiperidin-4-ylmethoxy)quinazoline]
- Anti-tumour activity (tumour growth): broad-spectrum anti-tumour activity
- Day 14 Median tumour volume (MX-1 tumour xenografts): 0.148 cm^3
- Day 14 geometric mean tumour volume (MX-1 tumour xenografts): 0.148 cm^3
- Day 28 Median tumour volume (MX-1 tumour xenografts): 0.967 cm^3
- Day 28 geometric mean tumour volume (MX-1 tumour xenografts): 0.702 cm^3
- Inhibition of VEGF RTK (VEGF RTK): potent inhibitor

Source: patent US20110212978A1 (AstraZeneca AB, priority 2005, published 2011)
